Assay results published in patent US20100204151A1, “USE OF A PEPTIDE AS A THERAPEUTIC AGENT” (priority 2007, published 2010).

Tested on: drug-resistant Mycobacterium tuberculosis
Settings: peptide 10 micrograms per ml, seven days

In the case of “Ac-HWAVGHL-NH2 [Acetyl-GRP (20-26), Ac-His-Trp-Ala-Val-Gly-His-Leu-NH2]”, the “% inhibition” value is reported as 0.0%.
